The record followed here is US6849626B2, “Aza-amino acid derivatives (factor Xa inhibitors 15)” (Merck Patent GmbH, priority 2000, dated 2005).

On to `CCCN(Nc1cccc(C(=N)N)c1)C(=O)NNc1ccc(-c2ccccc2S(C)(=O)=O)cc1` [Compound 15, 1-(3-amidinophenyl)-4-(2′-methylsulfonylbiphenyl-4-ylamino)-2-propylsemicarbazide], for which the melting point was more than 300 °C. Compound `CCCN(Nc1cccc(C(=N)N)c1)C(=O)Nc1ccc(-c2ccccc2S(N)(=O)=O)cc1` [Compound 1, 4′-[3-(3-amidinophenyl)-2-propylcarbazoylamino]biphenyl-2-sulfonamide] had a melting point of 215 to 216 °C.

The term melting point denotes the temperature, or range, at which the solid turns liquid.
